Experimental data taken from patent publication US4314028A, “Fermentation process for producing tallysomycin compounds” (priority 1980, dated 1982).

Key:
[1] = system: Mycobacterium smegmatis strain M6-3; experiment: Relative antibacterial potency, paper-disc agar diffusion method; type: cell-based; settings: relative to tallysomycin A standard=1000 mcg/mg
Procedure: The relative antibacterial potencies (tallysomycin A standard=1000 mcg/mg) of the tallysomycin derivatives were determined by the paper-disc agar diffusion method using Mycobacterium smegmatis strain M6-3 as the assay organism.

[2] = system: Aspergillus fumigatus IAM 2593; experiment: MIC, two-fold agar dilution method; type: cell-based; settings: Sabouraud agar
Procedure: (§1) The minimum inhibitory concentrations (MIC) of the semibiosynthetic tallysomycin derivatives of the present invention were determined against fungi and gram-positive, gram-negative and acid-fast bacteria by the two-fold agar dilution method. Nutrient agar was used for bacteria and Sabouraud agar for fungi. The results are shown in the table below comparatively with tallysomycin A and B.

Mycobacterium 607 = experiment: MIC, two-fold agar dilution method; type: cell-based; settings: nutrient agar
Procedure: as §1

Sarcina lutea PCI1001 = experiment: MIC, two-fold agar dilution method; type: cell-based; settings: nutrient agar
Procedure: as §1

[3] = system: Bacillus subtilis PCI 219; experiment: MIC, two-fold agar dilution method; type: cell-based; settings: nutrient agar
Procedure: as §1

Escherichia coli NIHJ = experiment: MIC, two-fold agar dilution method; type: cell-based; settings: nutrient agar
Procedure: as §1

[4] = system: Staphylococcus aureus Smith; experiment: MIC, two-fold agar dilution method; type: cell-based; settings: nutrient agar
Procedure: as §1

Proteus mirabilis A9554 = experiment: MIC, two-fold agar dilution method; type: cell-based; settings: nutrient agar
Procedure: as §1

[5] = system: Candida albicans IAM 4888; experiment: MIC, two-fold agar dilution method; type: cell-based; settings: Sabouraud agar
Procedure: as §1

[6] = system: lysogenic bacterium E. coli W1709 (λ); experiment: Prophage induction of lysogenic bacterium (ILB activity); type: cell-based; settings: t/c ratio of plaque counts greater than 3.0
Procedure: The activity of prophage induction of lysogenic bacterium E. coli W1709 (λ) was determined according to the method disclosed by Lein et al. in Nature 196: 783-784 (1962). The plaque count was made on the agar plate containing test compound (t) and control plate (c). A t/c ratio of the plaque counts of greater than 3.0 was defined to be a significant level and lysogenic induction activity (ILB activity) was expressed by the minimum inducible concentration of the test compound.

[7] = system: Lymphocytic leukemia P388; experiment: animal or person; type: in vivo, BDF1 mice; settings: copper-chelated form unless otherwise stated; for Antitumor activity P388 (ED125): ip, once daily 9 days, dose giving T/C survival of 125%; for Antitumor therapeutic index P388: single dose LD50/ED125
Source text: (§2) The antitumor activity of the tallysomycin derivatives was examined in four experimental tumor systems in mice. Lymphocytic leukemia P388 and Lewis lung carcinoma were implanted intraperitoneally into BDF1 mice of either sex at an inoculum size of 3×10^5 and 5×10^5 cells per mouse, respectively. Sarcoma 180 ascites tumor was inoculated intraperitoneally into male dd-strain mice with […] per mouse. Melanotic melanoma B16 was implanted subcutaneously into BDF1 mice with 5×10^5 cells per mouse. Twenty-four hours after the implantation of tumor cells, graded doses of test compounds were administered to mice intraperitoneally in an injection volume of 0.2 ml. per 10 grams of body weight. Test compounds were given once daily for 9 days (qd 1→9 schedule) except for the mice inoculated with Lewis lung carcinoma which were treated for 11 days (qd 1→11). Death or survival of the treated and non-treated (control) animals was recorded daily during the observation period of 45 days after the implantation of tumor cells, and the median survival time was calculated for each of the test (T) and control (C) groups. […] The actual dose giving a T/C of 125% was estimated by linear regression analysis and defined as the effective dose 125 or ED125. The effective dose 150 (ED150) was employed for the evaluation of antitumor effect against Sarcoma 180. In the B16 melanoma experiment the tumor size was measured on day 16 after tumor inoculation, and the dose giving 50% inhibition of tumor growth (ID50) was calculated from regression lines.
(§3) The antitumor therapeutic index was calculated for each derivative from the ratio of toxicity and antitumor activity.

[8] = Acute toxicity, single dose LD50; type: in vivo, dd mice; settings: ip, 30 days observation, copper-chelated form unless otherwise stated
Procedure: Graded doses of test compounds were administered intraperitoneally to groups of dd mice. The injection was given one time only or once daily for 9 consecutive days. Death or survival of the animals was recorded for 30 days after the last dose of test compound to calculate the single or multiple median lethal dose (LD50).

Melanotic melanoma B16 = experiment: Antitumor activity in mice, melanotic melanoma B16; type: in vivo, BDF1 mice; settings: copper-chelated form unless otherwise stated
Source text: as §2, §3

Sarcoma 180 = experiment: animal or person; type: in vivo, dd-strain mice; settings: copper-chelated form unless otherwise stated
Source text: as §2, §3

| SMILES | Antibacterial potency [1] | minimum inhibitory concentration (MIC) [2] | minimum inhibitory concentration (MIC) (Mycobacterium 607) | minimum inhibitory concentration (MIC) (Sarcina lutea PCI1001) | minimum inhibitory concentration (MIC) [3] | minimum inhibitory concentration (MIC) (Escherichia coli NIHJ) | minimum inhibitory concentration (MIC) [4] | minimum inhibitory concentration (MIC) (Proteus mirabilis A9554) | minimum inhibitory concentration (MIC) [5] | ILB activity (minimum inducible concentration) [6] | Antitumor activity P388 (ED125) [7] | Antitumor therapeutic index P388 [7] | LD50 single dose [8] | Antitumor activity B16 (ID50) (Melanotic melanoma B16; ip, once daily 9 days, 50% inhibition of tumor growth, day 16, 23040 min) | Antitumor therapeutic index B16 (Melanotic melanoma B16; single dose LD50/ID50) | Antitumor activity S180 (ED150) (Sarcoma 180; ip, once daily 9 days, effective dose 150, survival) | Antitumor therapeutic index S180 (Sarcoma 180; single dose LD50/ED150) |
| --- | --- | --- | --- | --- | --- | --- | --- | --- | --- | --- | --- | --- | --- | --- | --- | --- | --- |
| Cc1c(N)nc(C(CC(N)=O)NCC(N)C(N)=O)nc1C(=O)NC(C(=O)NC(C)C(O)CC(=O)NC(C(=O)NC(OC1OC(C)C(N)C(O)C1O)C(O)c1nc(-c2nc(C(=O)NCCCC(N)CC(=O)NCCCNC(C)c3ccccc3)cs2)cs1)C(C)O)C(OC1OC(CO)C(O)C(O)C1OC1OC(CO)C(O)C(OC(N)=O)C1O)c1c[nH]cn1 (stereo not drawn) [Tallysomycin S14a] | 1,300 μ/mg | 3.1 | 0.1 | 0.8 | 0.1 | 0.2 | 0.8 | 3.1 | 50 | 0.01 µg/mL |  |  |  |  |  |  |  |
| Cc1c(N)nc([C@H](CC(N)=O)NC[C@@H](N)C(N)=O)nc1C(=O)N[C@H](C(=O)N[C@H](C)[C@@H](O)CC(=O)N[C@@H](C(=O)NC(O[C@@H]1O[C@@H](C)[C@@H](N)[C@@H](O)[C@H]1O)C(O)c1nc(-c2nc(C(=O)NCCCNCCCCN)cs2)cs1)[C@@H](C)O)C(O[C@@H]1O[C@@H](CO)[C@H](O)[C@@H](O)[C@@H]1O[C@H]1O[C@H](CO)[C@@H](O)[C@@H](OC(N)=O)[C@@H]1O)c1cnc[nH]1 (stereo partly drawn) [Tallysomycin B, reference compound] | 900 μ/mg | 0.8 | 0.2 | 0.4 | 0.006 | 0.2 | 0.4 | 0.2 | 6.3 | 0.01 µg/mL |  |  |  |  |  |  |  |
| Cc1c(N)nc(C(CC(N)=O)NCC(N)C(N)=O)nc1C(=O)NC(C(=O)NC(C)C(O)CC(=O)NC(C(=O)NC(OC1OC(C)C(N)C(O)C1O)C(O)c1nc(-c2nc(C(=O)NCC(O)CN)cs2)cs1)C(C)O)C(OC1OC(CO)C(O)C(O)C1OC1OC(CO)C(O)C(OC(N)=O)C1O)c1c[nH]cn1 (stereo not drawn) [Tallysomycin S4b] | 405 μ/mg | 0.8 | 0.003 | 3.1 | 0.006 | 0.4 | 0.8 | 0.4 | 25 |  | > 3.0 mg/kg/day | < 4 | 13 mg/kg/day | 0.50 mg/kg/day | 26 | 0.13 mg/kg/day | 100 |
| CNCCCNC(=O)CC(N)CCCNC(=O)c1csc(-c2csc(C(O)C(NC(=O)C(NC(=O)CC(O)C(C)NC(=O)C(NC(=O)c3nc(C(CC(N)=O)NCC(N)C(N)=O)nc(N)c3C)C(OC3OC(CO)C(O)C(O)C3OC3OC(CO)C(O)C(OC(N)=O)C3O)c3c[nH]cn3)C(C)O)OC3OC(C)C(N)C(O)C3O)n2)n1 (stereo not drawn) [Tallysomycin S11a] | 570 μ/mg | 0.8 | 0.1 | 0.2 | 0.025 | 0.1 | 0.8 | 0.2 | 1.6 | 0.08 µg/mL | 0.60 mg/kg/day | 30 | 18 mg/kg/day |  |  |  |  |
| Cc1c(N)nc([C@H](CC(N)=O)NC[C@H](N)C(N)=O)nc1C(=O)N[C@H](C(=O)N[C@H](C)[C@@H](O)CC(=O)N[C@H](C(=O)NC(O[C@@H]1O[C@@H](C)[C@@H](N)[C@@H](O)[C@H]1O)C(O)c1nc(-c2nc(C(=O)NCCCC(N)CC(=O)NCCCNCCCCN)cs2)cs1)[C@@H](C)O)[C@H](O[C@@H]1O[C@@H](CO)[C@@H](O)[C@H](O)[C@@H]1O[C@H]1O[C@H](CO)[C@@H](O)[C@H](OC(N)=O)[C@@H]1O)c1c[nH]cn1 (stereo partly drawn) [Tallysomycin A, reference compound] | 1,000 μ/mg | 1.6 | 0.2 | 0.05 | < 0.003 | 0.05 | 0.1 | 0.4 | 12.5 | 0.00125 µg/mL |  |  |  |  |  |  |  |
| Cc1c(N)nc(C(CC(N)=O)NCC(N)C(N)=O)nc1C(=O)NC(C(=O)NC(C)C(O)CC(=O)NC(C(=O)NC(OC1OC(C)C(N)C(O)C1O)C(O)c1nc(-c2nc(C(=O)NCCCC(N)CC(=O)NCCCN(CCO)CCO)cs2)cs1)C(C)O)C(OC1OC(CO)C(O)C(O)C1OC1OC(CO)C(O)C(OC(N)=O)C1O)c1c[nH]cn1 (stereo not drawn) [Tallysomycin S8a] | 550 μ/mg | 0.8 | 0.1 | 0.4 | 0.006 | 0.1 | 0.2 | 0.4 | 12.5 | 0.005 µg/mL | 0.78 mg/kg/day | 54 | 42 mg/kg/day |  |  |  |  |
